Results taken from patent publication US20120034613A1, “Apparatus and Method for Testing Relationships Between Gene Expression and Physical Appearance of Skin” (NSE Products, Inc., priority 2010, published 2012).

System: EpidermFT™ Skin Model (EFT-400) full thickness skin cultures
Assay: Affymetrix GeneChip HG U133 Plus 2.0 microarray global gene expression, agent-exposed vs untreated skin cultures
Assay type: cell-based, human
Conditions: Salicin 0.5% vs Untreated Control, 24 hr treatment

Structure (SMILES): OCc1ccccc1O[C@@H]1O[C@H](CO)[C@@H](O)[C@H](O)[C@H]1O [Salicin, 2-(Hydroxymethyl)phenyl β-D-glucospyranoside]
- Direction UGCGL2 (218801_at): up
- Direction UST (205139_s_at): up
- Direction WIPI1 (203827_at): up
- Direction XPO1 (235927_at): up
- Direction ZFAND5 (217649_at): up
- Direction ZFP36L1 (211965_at): up
- Direction ZNF281 (228785_at): up
- Direction ZNF331 (219228_at): up
- Direction ZNF697 (227080_at): up
- Fold change ABHD2 (205566_at): 2.508
- Fold change ABHD2 (221815_at): 2.348
- Fold change ABHD2 (225337_at): 2.704
- Fold change ADAMTS5 (235368_at): 2.751
- Fold change ADAMTS6 (1570351_at): 2.37
- Fold change ADCYAP1 (230237_at): 2.573
- Fold change AHI1 (220841_s_at): 2.322
- Fold change AHI1 (221569_at): 2.667
- Fold change AKR1C1 (1562102_at): 2.331
- Fold change AKT3 (212607_at): 2.622
- Fold change AKT3 (212609_s_at): 2.3
- Fold change AKT3 (222880_at): 2.365
- Fold change AKT3 (224229_s_at): 2.751
- Fold change ALG9 (228817_at): 2.321
- Fold change ANKRD28 (213035_at): 2.361
- Fold change ANKRD28 (229307_at): 2.421
- Fold change ARMC8 (1555281_x_at): 2.299
- Fold change ARNT2 (202986_at): 2.361
- Fold change ATF3 (1554980_a_at): 2.623
- Fold change ATP2A3 (207522_s_at): 2.434
- Fold change BAG2 (209406_at): 2.774
- Fold change BCL2L11 (1558143_a_at): 2.347
- Fold change BNC2 (220272_at): 2.471
- Fold change BNC2 (235723_at): 2.707
- Fold change C1GALT1C1 (238989_at): 2.327
- Fold change C1orf67 /// DNAH14 (242283_at): 2.614
- Fold change C13orf33 (227058_at): 2.621
- Fold change CABLES1 (225532_at): 2.633
- Fold change CARD16 (1552701_a_at): 2.363
- Fold change CCR1 (205098_at): 2.474
- Fold change CDCP1 (1554110_at): 2.44
- Fold change CDR2 (209501_at): 2.488
- Fold change CHST2 (203921_at): 2.332
- Fold change CLGN (205830_at): 2.486
- Fold change CNOT3 (203239_s_at): 2.466
- Fold change CPM (241765_at): 2.574
- Fold change CPM (243403_x_at): 2.436
- Fold change CREM (207630_s_at): 2.309
- Fold change CUL4B (202213_s_at): 2.538
- Fold change CXCL1 (204470_at): 2.363
- Fold change CYP7B1 (207386_at): 2.782
- Fold change CYR61 (210764_s_at): 2.692
- Fold change DENND3 (212975_at): 2.471
- Fold change DENND5B (228551_at): 2.474
- Fold change DGKI (206806_at): 2.74
- Fold change DNAJB9 (202842_s_at): 2.613
- Fold change DNAJB9 (1554462_a_at): 2.666
- Fold change DNAJC10 (221781_s_at): 2.508
- Fold change DNAJC10 (221782_at): 2.553
- Fold change DOCK4 (205003_at): 2.383
- Fold change DOCK5 (230206_at): 2.653
- Fold change DOCK5 (230263_s_at): 2.362
- Fold change DOK6 (236290_at): 2.316
- Fold change DSEL (232825_s_at): 2.821
- Fold change DUSP4 (204015_s_at): 2.668
- Fold change DZIP1 (204557_s_at): 2.653
- Fold change EIF2AK3 (218696_at): 2.305
- Fold change ELL2 (214446_at): 2.557
- Fold change ELTD1 (219134_at): 2.637
- Fold change ENPP1 (205066_s_at): 2.414
- Fold change ENTPD7 (220153_at): 2.395
- Fold change EPS8 (202609_at): 2.334
- Fold change EREG (205767_at): 2.487
- Fold change ERO1LB (220012_at): 2.376
- Fold change FADS1 (208963_x_at): 2.411
- Fold change FADS1 (208964_s_at): 2.638
- Fold change FAM20A (226804_at): 2.437
- Fold change FAM107B (223058_at): 2.544
- Fold change FAM107B (223059_s_at): 2.476
- Fold change FAR2 (220615_s_at): 2.497
- Fold change FAT4 (219427_at): 2.428
- Fold change FEM1B (212374_at): 2.726
- Fold change FGF7 (1555103_s_at): 2.35
- Fold change FGF7 /// KGFLP1 /// KGFLP2 (1554741_s_at): 2.506
- Fold change FHOD3 (218980_at): 2.607
- Fold change FKBP11 (219117_s_at): 2.431
- Fold change FKBP11 (219118_at): 2.422
- Fold change FMN2 (1555471_a_at): 2.355
- Fold change FN1 (214701_s_at): 2.436
- Fold change FN1 (214702_at): 2.71
- Fold change FOXJ3 (217310_s_at): 2.327
- Fold change FPR1 (205119_s_at): 2.402
- Fold change GAS1 (204457_s_at): 2.783
- Fold change GCLM (203925_at): 2.646
- Fold change GCLM (236140_at): 2.667
- Fold change GEM (204472_at): 2.52
- Fold change GFPT1 (226886_at): 2.512
- Fold change GFPT2 (205100_at): 2.3
- Fold change GLIPR1 (204222_s_at): 2.366
- Fold change GRAMD1A (224807_at): 2.363
- Fold change GRAMD1B (212906_at): 2.401
- Fold change GUCY1A3 (221942_s_at): 2.594
- Fold change GUCY1A3 (229530_at): 2.498
- Fold change HERC3 (1554290_at): 2.372
- Fold change HEY1 (44783_s_at): 2.372
- Fold change HIST1H2AB /// HIST1H2AE (214469_at): 2.52
- Fold change HIST1H2AD /// HIST1H3A /// HIST1H3B /// HIST1H3C /// HIST1H3D /// HIST1H3E /// HIST1H3F /// HIST1H3G /// HIST1H3H /// HIST1H3I /// HIST1H3J (214472_at): 2.608
- Fold change HIST2H2AA3 /// HIST2H2AA4 (214290_s_at): 2.42
- Fold change HK2 (222305_at): 2.329
- Fold change HOXB2 (205453_at): 2.404
- Fold change HSD17B2 (204818_at): 2.766
- Fold change HSPA13 (202557_at): 2.665
- Fold change ID2 /// ID2B (213931_at): 2.802
- Fold change IGFBP5 (211958_at): 2.712
